Measured values: PubChem BioAssay AID248 (DTP/NCI, 2004)
Several values for one entry are separate records, joined by “and”; a condition that tells them apart may be missing. Identical values can stand only once. Toxic doses and inconclusive results are not listed.

System: L1210 leukemia ip in BDF1 mice, survival T/C
Assay: NCI In Vivo Anticancer Drug Screen. Data for tumor model L1210 Leukemia (intraperitoneal) in B6D2F1 (BDF1) mice
Conditions: endpoint: mean survival time, higher = longer survival
How it was run: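 Read-out is survival time, reported as the treated-group measurement over the vehicle-control measurement.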

[1] = dose: 100.0 mg/kg/injection, schedule: Q04DX003 (ip), vehicle: saline with Tween-80
[2] = dose: 200.0 mg/kg/injection, schedule: Q04DX003 (ip), vehicle: saline with Tween-80
[3] = dose: 400.0 mg/kg/injection, schedule: Q04DX003 (ip), vehicle: saline with Tween-80
[4] = dose: 100.0 mg/kg/injection, schedule: Q04DX003 (ip), vehicle: Klucel (hydroxypropylcellulose) (HPC)
[5] = dose: 100.0 mg/kg/injection, schedule: Q01DX009 (ip), vehicle: saline with Tween-80
[6] = dose: 200.0 mg/kg/injection, schedule: Q01DX009 (ip), vehicle: saline with Tween-80
[7] = dose: 400.0 mg/kg/injection, schedule: Q01DX009 (ip), vehicle: saline with Tween-80
[8] = dose: 100.0 mg/kg/injection, schedule: Q01DX001 (ip), vehicle: carboxymethylcellulose (CMC)
[9] = dose: 200.0 mg/kg/injection, schedule: Q01DX001 (ip), vehicle: carboxymethylcellulose (CMC)
[10] = dose: 400.0 mg/kg/injection, schedule: Q01DX001 (ip), vehicle: carboxymethylcellulose (CMC)
[11] = dose: 100.0 mg/kg/injection, schedule: Q01DX009 (ip), vehicle: Klucel (hydroxypropylcellulose) (HPC)
[12] = dose: 400.0 mg/kg/injection, schedule: Q01DX009 (ip), vehicle: Klucel (hydroxypropylcellulose) (HPC)
[13] = dose: 100.0 mg/kg/injection, schedule: Q04DX002 (ip), vehicle: Klucel (hydroxypropylcellulose) (HPC)
[14] = dose: 200.0 mg/kg/injection, schedule: Q04DX002 (ip), vehicle: Klucel (hydroxypropylcellulose) (HPC)
[15] = dose: 50.0 mg/kg/injection, schedule: Q01DX001 (ip), vehicle: saline
[16] = dose: 100.0 mg/kg/injection, schedule: Q01DX001 (ip), vehicle: saline
[17] = dose: 200.0 mg/kg/injection, schedule: Q01DX001 (ip), vehicle: saline

In the case of CCCCc1c(C)nc(N)nc1N, the T/C (dose: 3.12 mg/kg/injection, schedule: Q01DX001 (ip), vehicle: Klucel (hydroxypropylcellulose) (HPC)) is reported as 105 % of control, the T/C (dose: 6.25 mg/kg/injection, schedule: Q01DX001 (ip), vehicle: Klucel (hydroxypropylcellulose) (HPC)) is reported as 110 % of control and the T/C (dose: 12.5 mg/kg/injection, schedule: Q01DX001 (ip), vehicle: Klucel (hydroxypropylcellulose) (HPC)) is reported as 111 % of control. For the same molecule, the T/C (dose: 25.0 mg/kg/injection, schedule: Q01DX001 (ip), vehicle: saline) was 98 % of control.
CCN(CC)C(=O)Nc1cccc(OC(=O)NC(C)(C)C)c1 was tested, and the T/C [1] was 99 % of control, the T/C [2] was 103 % of control and the T/C [3] was 93 % of control.
CCOc1cccc(OCC)c1C was tested, and the T/C [4] was 97 % of control, the T/C (dose: 200.0 mg/kg/injection, schedule: Q04DX003 (ip), vehicle: Klucel (hydroxypropylcellulose) (HPC)) was 94 % of control and the T/C (dose: 400.0 mg/kg/injection, schedule: Q04DX003 (ip), vehicle: Klucel (hydroxypropylcellulose) (HPC)) was 101 % of control.
With O=C(NC1CCOC1=O)OCc1ccccc1 (centres undefined) the T/C [5] was 94 % of control, the T/C [1] was 95 % of control and the T/C [6] was 95 % of control. For the same molecule, the T/C [2] was 91 % of control, the T/C [7] was 94 % of control and the T/C [3] was 95 % of control.
In the case of CCC(CC)NCC(C)O (centres undefined), the T/C (dose: 75.0 mg/kg/injection, schedule: Q01DX001 (ip), vehicle: saline) is reported as 105 % of control, the T/C (dose: 150.0 mg/kg/injection, schedule: Q01DX001 (ip), vehicle: saline) is reported as 108 % of control and the T/C (dose: 300.0 mg/kg/injection, schedule: Q01DX001 (ip), vehicle: saline) is reported as 102 % of control.
In the case of COc1ccc(/C(C#N)=C2\OC(=O)c3ccccc32)cc1OC, the T/C [8] is reported as 89 % of control, the T/C [9] is reported as 94 % of control and the T/C [10] is reported as 89 % of control.
With [Co+2].[N-]=Cc1ccccc1O.[N-]=Cc1ccccc1O the T/C (dose: 25.0 mg/kg/injection, schedule: Q04DX003 (ip), vehicle: Klucel (hydroxypropylcellulose) (HPC)) was 110 % of control, the T/C (dose: 50.0 mg/kg/injection, schedule: Q04DX003 (ip), vehicle: Klucel (hydroxypropylcellulose) (HPC)) was 113 % of control and the T/C [4] was 99 % of control and 118 % of control.
With CCCCCCCCC(C)c1ccccc1O (centres undefined) the T/C [11] was 104 % of control, the T/C (dose: 200.0 mg/kg/injection, schedule: Q01DX009 (ip), vehicle: Klucel (hydroxypropylcellulose) (HPC)) was 101 % of control and the T/C [12] was 112 % of control.
For CC(=O)NN(N=O)C(C)c1ccccc1 (centres undefined), the T/C [13] was 108 % of control and the T/C [14] was 105 % of control.
In the case of NC(=O)C1=Cc2cc(Cl)cc(Cl)c2OC1, the T/C [5] is reported as 93 % of control, the T/C [6] is reported as 93 % of control and the T/C [7] is reported as 98 % of control.
COC1OC(C2N(c3ccccc3)CCN2c2ccccc2)=CC(OC(C)=O)C1OC(C)=O (centres undefined) was tested, and the T/C [11] was 86 % of control and the T/C [12] was 90 % of control.
In the case of COc1cc2c(c(OC)c1OC)-c1ccc(OC)c(=O)cc1[C@@H](NC=O)CC2, the T/C (dose: 0.35 mg/kg/injection, schedule: Q01DX015 (ip), vehicle: carboxymethylcellulose (CMC)) is reported as 118 % of control, the T/C (dose: 0.5 mg/kg/injection, schedule: Q01DX009 (ip), vehicle: Klucel (hydroxypropylcellulose) (HPC)) is reported as 122 % of control and the T/C (dose: 0.7 mg/kg/injection, schedule: Q01DX015 (ip), vehicle: carboxymethylcellulose (CMC)) is reported as 112 % of control. The T/C (dose: 3.0 mg/kg/injection, schedule: Q01DX015 (ip), vehicle: carboxymethylcellulose (CMC)) was 90 % of control.
In the case of COC1OC(COS(C)(=O)=O)C(O)C(OS(C)(=O)=O)C1OS(C)(=O)=O (centres undefined), the T/C (dose: 50.0 mg/kg/injection, schedule: Q04DX002 (ip), vehicle: Klucel (hydroxypropylcellulose) (HPC)) is reported as 93 % of control, the T/C [13] is reported as 93 % of control and the T/C [14] is reported as 101 % of control.
With OC12c3ccccc3C1(c1ccccn1)c1ccccc12 (centres undefined) the T/C (dose: 100.0 mg/kg/injection, schedule: Q01DX009 (ip), vehicle: gum acacia) was 98 % of control, the T/C (dose: 100.0 mg/kg/injection, schedule: Q04DX003 (ip), vehicle: gum acacia) was 98 % of control and the T/C (dose: 200.0 mg/kg/injection, schedule: Q01DX009 (ip), vehicle: gum acacia) was 96 % of control. The T/C (dose: 200.0 mg/kg/injection, schedule: Q04DX003 (ip), vehicle: gum acacia) was 98 % of control, the T/C (dose: 400.0 mg/kg/injection, schedule: Q01DX009 (ip), vehicle: gum acacia) was 100 % of control and the T/C (dose: 400.0 mg/kg/injection, schedule: Q04DX003 (ip), vehicle: gum acacia) was 103 % of control.
For Nc1ccn([C@@H](C=O)O[C@@H](C=O)CO)c(=O)n1, the T/C (dose: 35.0 mg/kg/injection, schedule: Q01DX009 (ip), vehicle: water) was 111 % of control, the T/C (dose: 35.0 mg/kg/injection, schedule: Q01DX Z (ip), vehicle: water) was 107 % of control and the T/C (dose: 70.0 mg/kg/injection, schedule: Q01DX009 (ip), vehicle: water) was 122 % of control. For the same molecule, the T/C (dose: 70.0 mg/kg/injection, schedule: Q01DX Z (ip), vehicle: water) was 123 % of control and the T/C (dose: 140.0 mg/kg/injection, schedule: Q01DX009 (ip), vehicle: water) was 161 % of control.
CCC(C)NNCCO (centres undefined) was tested, and the T/C [15] was 97 % of control, the T/C [16] was 103 % of control and the T/C [17] was 100 % of control.
O=NN(CCCl)C(=O)NCc1ccc(-c2ccc(CNC(=O)N(CCCl)N=O)cc2)cc1 was tested, and the T/C (dose: 177.0 mg/kg/injection, schedule: Q01DX001 (ip), vehicle: other) was 156 % of control and 188 % of control, the T/C (dose: 266.0 mg/kg/injection, schedule: Q01DX001 (ip), vehicle: other) was 180 % of control and the T/C (dose: 400.0 mg/kg/injection, schedule: Q01DX001 (ip), vehicle: other) was 194 % of control. The T/C (dose: 400.0 mg/kg/injection, schedule: Q01DX009 (ip), vehicle: carboxymethylcellulose (CMC)) was 159 % of control and 274 % of control, the T/C (dose: 600.0 mg/kg/injection, schedule: Q01DX001 (ip), vehicle: other) was 264 % of control and the T/C (dose: 600.0 mg/kg/injection, schedule: Q01DX009 (ip), vehicle: carboxymethylcellulose (CMC)) was 261 % of control.
In the case of CNC(CCc1ccccc1)C(=O)O (centres undefined), the T/C (dose: 100.0 mg/kg/injection, schedule: Q01DX009 (ip), vehicle: saline sonified) is reported as 98 % of control, the T/C [1] is reported as 100 % of control and the T/C (dose: 200.0 mg/kg/injection, schedule: Q01DX009 (ip), vehicle: saline sonified) is reported as 101 % of control. For the same molecule, the T/C [2] was 99 % of control, the T/C (dose: 400.0 mg/kg/injection, schedule: Q01DX009 (ip), vehicle: saline sonified) was 93 % of control and the T/C [3] was 99 % of control.
With CCn1c(=S)[nH]c(=O)c2n[nH]nc21 the T/C [1] was 88 % of control, the T/C [2] was 89 % of control and the T/C [3] was 93 % of control.
With CC(=O)OCC1OC(n2cnc([N+](=O)[O-])c2Br)C(OC(C)=O)C1OC(C)=O (centres undefined) the T/C [15] was 98 % of control, the T/C [16] was 98 % of control and the T/C [17] was 102 % of control. For the same molecule, the T/C (dose: 400.0 mg/kg/injection, schedule: Q01DX001 (ip), vehicle: saline) was 102 % of control.
In the case of CCOC(=O)C(C(=O)O)(C(c1ccccc1)c1ccccc1)C(c1ccccc1)c1ccccc1, the T/C (dose: 75.0 mg/kg/injection, schedule: Q01DX001 (ip), vehicle: carboxymethylcellulose (CMC)) is reported as 90 % of control.
For CC(C)(C)OC(=O)NC(CC(N)=O)C(=O)ON1C(=O)CCC1=O (centres undefined), the T/C (dose: 25.0 mg/kg/injection, schedule: Q01DX009 (ip), vehicle: saline) was 95 % of control, the T/C (dose: 50.0 mg/kg/injection, schedule: Q01DX009 (ip), vehicle: saline) was 99 % of control and the T/C (dose: 100.0 mg/kg/injection, schedule: Q01DX009 (ip), vehicle: saline) was 86 % of control. The T/C (dose: 100.0 mg/kg/injection, schedule: Q04DX002 (ip), vehicle: saline) was 108 % of control, the T/C (dose: 200.0 mg/kg/injection, schedule: Q01DX009 (ip), vehicle: saline) was 94 % of control and 99 % of control and the T/C (dose: 200.0 mg/kg/injection, schedule: Q04DX002 (ip), vehicle: saline) was 86 % of control. The T/C (dose: 400.0 mg/kg/injection, schedule: Q01DX009 (ip), vehicle: saline) was 105 % of control and the T/C (dose: 400.0 mg/kg/injection, schedule: Q04DX002 (ip), vehicle: saline) was 105 % of control.
For CCCC(=O)OCC1OC(n2cc(C)c(=O)[nH]c2=O)CC1OC(=O)CCC (centres undefined), the T/C [8] was 104 % of control and the T/C [9] was 93 % of control.
In the case of CCOC(=O)C(NC(=O)OCc1ccccc1)(OCc1ccccc1)C(C)C (centres undefined), the T/C [5] is reported as 105 % of control, the T/C [6] is reported as 98 % of control and the T/C [7] is reported as 100 % of control.
In the case of CCN(CC)C(=O)Nc1cccc(OC(=O)N(C)C)c1, the T/C [5] is reported as 87 % of control and the T/C [6] is reported as 89 % of control.
With NC(C(=O)O)C1SCCS1 (centres undefined) the T/C [8] was 102 % of control, the T/C [9] was 102 % of control and the T/C [10] was 98 % of control.
